From PMC11284787, “Ligand-Directed Labeling of the Adenosine A1 Receptor in Living Cells” (Journal of Medicinal Chemistry, 2024) come the findings set out here.

One assay has as its target T1, NL-hA2BAR (Homo sapiens, UniProt P29275).
T1 construct: expressed in transfected cells
T1 sequence (P29275 1-332): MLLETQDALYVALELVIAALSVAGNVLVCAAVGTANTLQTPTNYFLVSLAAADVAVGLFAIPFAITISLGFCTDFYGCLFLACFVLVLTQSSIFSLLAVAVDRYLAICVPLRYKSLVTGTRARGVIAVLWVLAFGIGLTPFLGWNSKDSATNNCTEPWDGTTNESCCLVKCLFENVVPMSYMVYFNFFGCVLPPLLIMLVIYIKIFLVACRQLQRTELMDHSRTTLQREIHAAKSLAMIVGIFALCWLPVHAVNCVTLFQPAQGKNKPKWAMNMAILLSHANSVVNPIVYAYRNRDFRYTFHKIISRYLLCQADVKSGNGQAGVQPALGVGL
Kind of assay: NanoBRET saturation ligand-binding assay, NL-hA2BAR. Here is the method: (§1) Probes 11 and 12 were further evaluated for their ability to bind the other three adenosine receptor subtypes (NL-A2AAR, NL-A2BAR, and NL-A3AR), and their ligand-binding properties were quantified in the NanoBRET saturation and inhibition binding assays, respectively (Table 1 and Figure 4).
(§2) NanoBRET binding assay. All NanoBRET experiments were performed in white flat […]
(§3) 37 °C for kinetic binding experiments. Emissions were read at 420 nm (80 nm bandpass; […]
(§4) the SulfoCy5-labelled probe. […]
(§5) nm emission by the 420 nm emission. The term “raw BRET ratio” refers to the unprocessed data as no background ratio has been subtracted. In all NanoBRET binding […]
(§6) competitive antagonist selective for the adenosine receptor under investigation […]
(§7) MRS1220 for the A3AR). HEK293T cells stably/transiently expressing Nluc-AR were […]
(§8) were incubated for 1 h at 37 °C. […]
(§9) NanoBRET saturation binding assay. Total and nonspecific saturation binding curves were fit simultaneously using the following equation:
(§10) BRET ratio = Bmax[B] + M(B) + C […]
(§11) Uninhibited specific binding = 100 ― 100 x [A]

Assay [1] has as its target T2, NL-hA3AR (Homo sapiens, UniProt P0DMS8).
T2 construct: expressed in transfected cells
T2 sequence (P0DMS8 1-318): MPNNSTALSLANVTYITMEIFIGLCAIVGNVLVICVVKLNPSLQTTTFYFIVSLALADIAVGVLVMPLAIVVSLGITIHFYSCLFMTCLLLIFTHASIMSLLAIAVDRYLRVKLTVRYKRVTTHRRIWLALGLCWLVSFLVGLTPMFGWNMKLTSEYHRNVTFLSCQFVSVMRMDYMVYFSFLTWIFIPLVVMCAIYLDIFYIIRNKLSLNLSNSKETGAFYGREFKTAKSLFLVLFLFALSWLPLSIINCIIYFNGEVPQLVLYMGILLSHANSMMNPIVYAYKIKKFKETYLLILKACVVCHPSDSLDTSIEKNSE
Description: NanoBRET saturation ligand-binding assay, NL-hA3AR. The protocol:
as §1, §2, §3, §4, §5, §6, §7, §8, §9, §10, §11

For assay [2], the target named is T2, NL-hA3AR. Kind of assay: cell-based. It is filed as binding. The conditions noted are these: CA200645 (25 nM) tracer, HEK293T cells, mean ± SEM; read-out: affinity values pKi, NL-hA3AR (converted).

On to `CCCCn1c(=O)c2[nH]c(C34CCC(C(=O)NCCNC(=O)CCNC(=O)c5ccc(OC(=O)CCCCC[N+]6=C(/C=C/C=C/C=C7/N(C)c8ccc(S(=O)(=O)O)cc8C7(C)C)C(C)(C)c7cc(S(=O)(=O)[O-])ccc76)c(F)c5)(CC3)CC4)nc2n(CCCC)c1=O` [Compound 11, 1-(6-(4-((3-((2-(4-(1,3-Dibutyl-2,6-dioxo-2,3,6,7-tetrahydro-1H-purin-8-yl)bicyclo[2.2.2]octane-1-carboxamido)ethyl)amino)-3-oxopropyl)carbamoyl)-2-fluorophenoxy)-6-oxohexyl)-3,3-dimethyl-2-((1E,3E)-5-((E)-1,3,3-trimethyl-5-sulfoindolin-2-ylidene)penta-1,3-dien-1-yl)-3H-indol-1-ium-5-sulfonate], for which the Kd at NL-hA2BAR (HEK293T cells stably expressing NL-hA2BAR, read-out: affinity values pKD, NL-hA2BAR (converted)) was over 1000 nM; on NL-hA3AR [1] (HEK293T cells stably expressing NL-hA3AR, read-out: affinity values pKD, NL-hA3AR (converted)), over 1000 nM. Also, at NL-hA2BAR (concentrations tested 0–500 nM), the “BRET signal detected at NL-A2BAR” value is listed as “minimal BRET signal”. The “BRET signal detected at NL-A3AR” value at NL-hA3AR [1] (concentrations tested 0–500 nM) is “minimal BRET signal”.

In the case of `CCCCn1c(=O)c2[nH]c(C34CCC(C(=O)NCCNC(=O)CCNC(=O)c5ccc(OC(=O)CCC(=O)NCCOCCOCCNC(=O)O[C@H]6CC/C=C/CCC6)c(F)c5)(CC3)CC4)nc2n(CCCC)c1=O` [Compound 12, 4-((3-((2-(4-(1,3-Dibutyl-2,6-dioxo-2,3,6,7-tetrahydro-1H-purin-8-yl)bicyclo[2.2.2]octane-1-carboxamido)ethyl)amino)-3-oxopropyl)carbamoyl)-2-fluorophenyl (R,E)-1-(Cyclooct-4-en-1-yloxy)-1,12-dioxo-5,8-dioxa-2,11-diazapentadecan-15-oate], the Ki at NL-hA3AR [2] was over 10000 nM.
